Results taken from ChEMBL document CHEMBL3596146, “Design, synthesis, and biological evaluation of a series of alkoxy-3-indolylacetic acids as peroxisome proliferator-activated receptor γ/δ agonists” (Bioorg Med Chem, 2015).
Active and inactive are the calls of the source. The calls are words filed in the database; no cut-off is given here.

Key:
[1] = target: T1, Peroxisome proliferator-activated receptor alpha (Homo sapiens) (UniProt Q07869); test: Agonist activity at PPAR-alpha (unknown origin) expressed in CV-1 cells co-transfected with tk-PPRE-luciferase vector at 10 uM after 24 hrs by transactivation assay relative to GW7647; assay type: cell-based
T1 sequence (whole entry): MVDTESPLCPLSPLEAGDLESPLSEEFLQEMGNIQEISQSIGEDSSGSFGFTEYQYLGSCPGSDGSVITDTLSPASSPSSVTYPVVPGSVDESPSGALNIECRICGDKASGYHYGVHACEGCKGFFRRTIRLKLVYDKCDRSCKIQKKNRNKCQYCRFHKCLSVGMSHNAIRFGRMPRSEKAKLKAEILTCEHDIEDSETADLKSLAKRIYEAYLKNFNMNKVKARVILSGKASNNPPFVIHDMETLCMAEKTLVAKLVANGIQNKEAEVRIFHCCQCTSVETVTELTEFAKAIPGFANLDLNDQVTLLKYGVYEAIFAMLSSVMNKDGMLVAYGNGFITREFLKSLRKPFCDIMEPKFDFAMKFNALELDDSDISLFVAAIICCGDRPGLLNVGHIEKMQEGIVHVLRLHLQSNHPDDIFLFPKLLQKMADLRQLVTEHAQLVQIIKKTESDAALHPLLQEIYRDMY

[2] = target: T2, Peroxisome proliferator-activated receptor gamma (Homo sapiens) (UniProt P37231); test: Agonist activity at PPAR-gamma (unknown origin) expressed in CV-1 cells co-transfected with tk-PPRE-luciferase vector at 10 uM after 24 hrs by transactivation assay relative to rosiglitazone; assay type: cell-based
T2 sequence (whole entry): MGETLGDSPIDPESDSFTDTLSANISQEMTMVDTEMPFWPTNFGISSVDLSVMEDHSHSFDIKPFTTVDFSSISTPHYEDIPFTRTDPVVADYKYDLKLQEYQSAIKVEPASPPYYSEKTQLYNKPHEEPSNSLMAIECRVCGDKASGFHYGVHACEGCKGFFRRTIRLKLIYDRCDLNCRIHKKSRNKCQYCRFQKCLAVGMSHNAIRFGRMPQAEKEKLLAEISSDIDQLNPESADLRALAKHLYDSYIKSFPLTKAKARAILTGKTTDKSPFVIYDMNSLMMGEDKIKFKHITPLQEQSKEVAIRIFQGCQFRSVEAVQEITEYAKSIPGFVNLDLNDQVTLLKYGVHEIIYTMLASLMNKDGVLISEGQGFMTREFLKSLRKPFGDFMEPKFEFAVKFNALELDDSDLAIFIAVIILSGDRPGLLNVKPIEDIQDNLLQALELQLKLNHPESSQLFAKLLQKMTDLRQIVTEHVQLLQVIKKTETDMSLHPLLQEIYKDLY

[3] = target: T3, Peroxisome proliferator-activated receptor delta (Homo sapiens) (UniProt Q03181); test: Agonist activity at PPAR-delta (unknown origin) expressed in HEK293t cells co-transfected with tk-PPRE-luciferase vector at 10 uM after 24 hrs by transactivation assay relative to GW0742; assay type: cell-based; details: HEK-293T
T3 sequence (whole entry): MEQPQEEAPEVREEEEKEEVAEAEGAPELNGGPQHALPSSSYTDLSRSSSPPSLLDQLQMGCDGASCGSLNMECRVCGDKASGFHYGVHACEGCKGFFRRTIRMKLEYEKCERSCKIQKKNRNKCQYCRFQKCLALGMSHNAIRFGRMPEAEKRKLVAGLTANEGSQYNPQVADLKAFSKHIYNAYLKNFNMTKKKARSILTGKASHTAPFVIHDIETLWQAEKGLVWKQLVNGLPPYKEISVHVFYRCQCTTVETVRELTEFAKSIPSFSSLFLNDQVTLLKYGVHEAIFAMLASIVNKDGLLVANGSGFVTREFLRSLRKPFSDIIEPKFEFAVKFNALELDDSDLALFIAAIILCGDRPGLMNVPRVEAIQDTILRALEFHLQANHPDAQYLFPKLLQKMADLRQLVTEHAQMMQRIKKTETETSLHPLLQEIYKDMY

[4] = Retention time of the compound by HPLC analysis; assay type: physicochemical

Row | SMILES | Emax [1] [%] | Emax [2] [%] | Emax [3] | Retention_time [4] [min]
1 | COc1ccc(Oc2cccc(OCCCOc3ccc4c(c3)c(CC(=O)O)cn4Cc3ccccc3)c2)cc1 | 22.3 | 71.1 | 59.5% | 7.257
2 | Cc1ccc(COc2cccc(OCCCOc3ccc4c(c3)c(CC(=O)O)cn4Cc3ccccc3)c2)cc1 | 31.4 | 109 | 83% | 21.719
3 | CC(C)=CCn1cc(CC(=O)O)c2cc(OCCCOc3cccc(OCc4ccc(Cl)cc4)c3)ccc21 | 37.9 | 120 | 65.2% | 30.169
4 | O=C(O)Cc1cn(Cc2ccccc2)c2ccc(OCCCOc3cccc(OCc4ccccc4)c3)cc12 | 30.4 | 94.6 | 95.5% | 14.199
5 | O=C(O)Cc1cn(Cc2ccccc2)c2ccc(OCCOc3cccc(OCc4ccc(Cl)cc4)c3)cc12 | 40.7 | 81.2 | 106% | 17.1
6 | Cc1ccc(COc2ccccc2OCCCOc2ccc3c(c2)c(CC(=O)O)cn3Cc2ccccc2)cc1 | 26.7 | 75.1 | 68.9% | 14.49
7 | CCCn1cc(CC(=O)O)c2cc(OCCCOc3cccc(OCc4ccc(Cl)cc4)c3)ccc21 | 66.8 | 110 | 77.1% | 21.212
8 | O=C(O)Cc1cn(Cc2ccccc2)c2ccc(OCCCOc3cccc(Oc4ccc(C(F)(F)F)cc4)c3)cc12 | 25.9 | 85.2 | 53.2% | 25.922
9 | O=C(O)Cc1cn(Cc2ccccc2)c2cc(OCCCOc3cccc(OCc4ccc(Cl)cc4)c3)ccc12 | 34.8 | 122 | 84.8% | 18.802
10 | Cc1ccc(COc2ccc(OCCCOc3ccc4c(c3)c(CC(=O)O)cn4Cc3ccccc3)cc2)cc1 | 18.9 | 92.6 | 93.6% | 21.33
11 | O=C(O)Cc1cn(Cc2ccccc2)c2ccc(OCCOc3cccc(Cl)c3)cc12 | 15.3 | 23.6 | 13.7% | 8.911
12 | O=C(O)Cc1cn(Cc2ccccc2)c2ccc(OCCCOc3cccc(Oc4ccccc4)c3)cc12 | 13.9 | 71.2 | 46.3% | 18.216
13 | O=C(O)Cc1cn(Cc2ccccc2)c2ccc(OCCCOc3ccccc3OCc3ccc(Cl)cc3)cc12 | 27.1 | 89.2 | 74.9% | 15.313
14 | O=C(O)Cc1cn(Cc2ccccc2)c2ccc(OCCCOc3cccc(OCc4ccc(F)cc4)c3)cc12 | 16.5 | 77.7 | 59.5% | 16.467
15 | O=C(O)Cc1cn(Cc2ccccc2)c2ccc(OCCCOc3cccc(Oc4ccc(Cl)cc4)c3)cc12 | 34 | 99.8 | 88.8% | 25.456
16 | Cc1ccc(Oc2cccc(OCCCOc3ccc4c(c3)c(CC(=O)O)cn4Cc3ccccc3)c2)cc1 | 33.3 | 119 | 69.1% | 23.472
17 | O=C(O)Cc1c[nH]c2ccc(OCCOc3cccc(Cl)c3)cc12 | 15.5 | 16.8 | 16.2% | 4.608
18 | C=CCn1cc(CC(=O)O)c2cc(OCCCOc3cccc(OCc4ccc(Cl)cc4)c3)ccc21 | 35.8 | 104 | 71.1% | 15.057
19 | Cc1cccc(OCCOc2ccc3c(c2)c(CC(=O)O)cn3Cc2ccccc2)c1 | 10.9 | 36.5 | 13.2% | 8.19
20 | O=C(O)Cc1cn(Cc2ccccc2)c2ccc(OCCCOc3cccc(OCc4ccc(C(F)(F)F)cc4)c3)cc12 | 12.2 | 77.9 | 87.4% | 24.08
21 | O=C(O)Cc1c[nH]c2ccc(OCCCOc3ccccc3OCc3ccc(Cl)cc3)cc12 | 21 | 16.1 | inactive | 7.547
22 | O=C(O)Cc1cn(Cc2ccccc2)c2ccc(OCCCOc3cccc(OCc4ccc(Cl)cc4Cl)c3)cc12 | 18.7 | 102 | 44.2% | –
23 | O=C(O)Cc1cn(Cc2ccccc2)c2ccc(OCCCOc3ccc(OCc4ccc(Cl)cc4)cc3)cc12 | 19 | 83.7 | 94.7% | 22.989

Results, then the compound that gave them:

Row | Emax [1] [%] | Emax [2] [%] | Emax [3] | Retention_time [4] [min] | SMILES
24 | 21.8 | 31.3 | 27.9% | 4.444 | Cc1cccc(OCCOc2ccc3[nH]cc(CC(=O)O)c3c2)c1
25 | 59.5 | 102 | 85.3% | – | O=C(O)Cc1c[nH]c2ccc(OCCCOc3cccc(OCc4ccc(Cl)cc4Cl)c3)cc12
26 | 38.5 | 101 | 87.2% | 16.602 | Cc1ccc(COc2cccc(OCCOc3ccc4c(c3)c(CC(=O)O)cn4Cc3ccccc3)c2)cc1
27 | 41.2 | 91.7 | 53.3% | 7.89 | Cc1ccc(COc2ccc(OCCCOc3ccc4[nH]cc(CC(=O)O)c4c3)cc2)cc1
28 | 61.1 | 119 | 43.2% | 9.685 | O=C(O)Cc1c[nH]c2ccc(OCCCOc3cccc(Oc4ccc(C(F)(F)F)cc4)c3)cc12
29 | 45 | 89.7 | 25.6% | 6.53 | COc1ccc(Oc2cccc(OCCCOc3ccc4[nH]cc(CC(=O)O)c4c3)c2)cc1
30 | 59.2 | 106 | 37.9% | 9.322 | O=C(O)Cc1c[nH]c2ccc(OCCCOc3cccc(Oc4ccc(Cl)cc4)c3)cc12
31 | 23.4 | 84.3 | 37.2% | 9.005 | Cc1ccc(COc2cccc(OCCCOc3ccc4c(CC(=O)O)c[nH]c4c3)c2)cc1
32 | 42.8 | 79.6 | 79% | 7.623 | O=C(O)Cc1c[nH]c2ccc(OCCOc3cccc(OCc4ccc(Cl)cc4)c3)cc12
33 | 66.7 | 114 | 76.6% | 7.375 | Cc1ccc(COc2cccc(OCCOc3ccc4[nH]cc(CC(=O)O)c4c3)c2)cc1
34 | 41.2 | 73.4 | 35.2% | 7.257 | Cc1ccc(COc2ccccc2OCCCOc2ccc3[nH]cc(CC(=O)O)c3c2)cc1
35 | 10.9 | 19.2 | 64.6% | 7.422 | Cc1ccc(COc2ccccc2OCCCOc2ccc3c(CC(=O)O)c[nH]c3c2)cc1
36 | 60.6 | 145 | 40.6% | 9.409 | Cc1ccc(Oc2cccc(OCCCOc3ccc4[nH]cc(CC(=O)O)c4c3)c2)cc1
37 | 37.5 | 110 | 70.8% | 13.52 | Cn1cc(CC(=O)O)c2cc(OCCCOc3cccc(OCc4ccc(Cl)cc4)c3)ccc21
38 | 45.4 | 92.5 | 23.8% | 7.305 | O=C(O)Cc1c[nH]c2ccc(OCCCOc3cccc(Oc4ccccc4)c3)cc12
